From ChEMBL document CHEMBL5137030 (Eur J Med Chem, 2022)
The source made the active and inactive calls. The calls are words filed in the database; no cut-off is given here.

Legend:
Human alphaherpesvirus 1 [1] = assay: (§1) Antiviral activity against HSV-1 infected in African green monkey Vero cells assessed as inhibition of viral replication by measuring log suppression of virus-induced cytopathic effect at 1 uM incubated for 1 hr followed by washing with PBS and subsequent treatment with compound for 24 hrs by plaque assay; format: functional; conditions: time 25 hrs
Human alphaherpesvirus 2 [2] = assay: as §1, with “HSV-2” for “HSV-1”; format: functional; conditions: time 25 hrs
Human alphaherpesvirus 2 [3] = assay: Antiviral activity against wild-type HSV-2 186 infected in African green monkey Vero cells assessed as inhibition of viral replication incubated for 1 hr followed by washing with PBS and subsequent treatment with compound for 24 hrs by plaque reduction assay; format: functional, organism-based; conditions: Human alphaherpesvirus 2, 186, Vero
Human alphaherpesvirus 2 [4] = assay: as §1, with “against HSV-2” for “against HSV-1”, “at 5” for “at 1”; format: functional; conditions: time 25 hrs
Human alphaherpesvirus 1 [5] = assay: Antiviral activity against HSV-1 infected in African green monkey Vero cells assessed as inhibition of viral replication incubated for 1 hr followed by washing with PBS and subsequent treatment with compound for 24 hrs by plaque reduction assay; format: functional, organism-based; conditions: Human alphaherpesvirus 1, Vero
Human alphaherpesvirus 2 [6] = assay: Antiviral activity against HSV-2 infected in African green monkey Vero cells assessed as inhibition of viral replication incubated for 1 hr followed by washing with PBS and subsequent treatment with compound for 24 hrs by plaque reduction assay; format: functional, organism-based; conditions: Human alphaherpesvirus 2, Vero
Human alphaherpesvirus 1 [7] = assay: as §1, with “at 5” for “at 1”; format: functional; conditions: time 25 hrs
[8] = Cytotoxicity against human HepDES19 cells assessed as reduction in cell viability incubated for 72 hrs by MTS assay; format: toxicity, cell-based; conditions: hepdes19, 72 h
Vero = assay: Cytotoxicity against African green monkey Vero cells assessed as reduction in cell viability incubated for 24 hrs by MTS assay; conditions: chlorocebus sabaeus
Human alphaherpesvirus 2 [9] = assay: Antiviral activity against thymidine kinase-deficient ACV-resistant HSV-2 186 TKdeltakpn infected in African green monkey Vero cells assessed as inhibition of viral replication incubated for 1 hr followed by washing with PBS and subsequent treatment with compound for 24 hrs by plaque reduction assay; format: functional, organism-based; conditions: Human alphaherpesvirus 2, 186 TKdeltakpn
[10] = Half-life in BALB/c mouse at 3 mg/kg, po and 1 mg/kg, iv by LC/MS/MS analysis; format: ADME, organism-based; conditions: in vivo
[11] = Oral bioavailability in BALB/c mouse at 3 mg/kg by LC/MS/MS analysis; format: ADME, organism-based; conditions: in vivo
[12] = Half life in mouse liver microsomes at 2 uM in presence of NADPH by LC/MS/MS analysis; format: ADME, Microsome
[13] = Half life in human liver microsomes at 2 uM in presence of NADPH by LC/MS/MS analysis; format: ADME, Microsome
Human alphaherpesvirus 2 [14] = assay: Antiviral activity against HSV-2 333vhsB infected in African green monkey Vero cells assessed as inhibition of viral replication by measuring reduction in virus-induced cytopathic effect at 50 uM incubated for 20 hrs by colorimetric analysis; format: functional, organism-based
[15] = Apparent permeability of the compound across apical to basolateral side in human Caco-2 cells at 10 uM incubated for 2 hrs; format: ADME, cell-based; conditions: caco-2, 2 h

| Structure (SMILES) | log(activity) (Human alphaherpesvirus 1 [1]) | log(activity) (Human alphaherpesvirus 2 [2]) | EC50 (Human alphaherpesvirus 2 [3]) [nM] | log(activity) (Human alphaherpesvirus 2 [4]) | EC50 (Human alphaherpesvirus 1 [5]) [nM] | EC50 (Human alphaherpesvirus 2 [6]) [nM] | log(activity) (Human alphaherpesvirus 1 [7]) | CC50 [8] [nM] | CC50 (Vero) [nM] | EC50 (Human alphaherpesvirus 2 [9]) [nM] | t1/2 [10] [min] | bioavailability [11] [%] | t1/2 [12] [min] | t1/2 [13] [min] | Activity (Human alphaherpesvirus 2 [14]) | Papp [15] |
| --- | --- | --- | --- | --- | --- | --- | --- | --- | --- | --- | --- | --- | --- | --- | --- | --- |
| Cc1cc(C2CCCCC2)n(O)c(=O)c1 [CICLOPIROX] | 1.66 | 2.6 | < 300 | 5.5 | 270 | 500 | 4.62 | 13000 | > 100000 | < 300 |  |  |  |  |  |  |
| Cc1cc(Cc2cccc3ccccc23)n(O)c(=O)c1 | 2.99 | 3.12 | < 300 | 4.33 |  | 220 | 4.81 | 25000 | 93100 | < 300 | < 60 | 10 | < 5 | < 5 | Active | 6.46 10^-6 cm/s |
| Cc1cc(Cc2ccc(-c3ccccc3)cc2)n(O)c(=O)c1 | 4.37 | 3.09 | < 300 | 4.6 | 210 | 140 | 4.74 | 12000 |  | < 300 | < 60 | 10 | < 5 | < 5 | Active | 1.35 10^-6 cm/s |
